Test system: ΔrhlI strain expressing RhlR T58L
Assay: RNA-seq gene expression
Format: cell-based, Pseudomonas aeruginosa
Design: opmD Expression value / mexI Expression value / mexH Expression value / mexG Expression value / lasB Expression value / rhlA Expression value / rhlB Expression value / rhlR Expression value / lecB Expression value / fhp Expression value / chiC Expression value / hcnA Expression value / mvfR Expression value / katB Expression value / norC Expression value / norB Expression value / katA Expression value: unit not given here
Settings: 2 µM C4HSL
Procedure: To determine the effects of hypo- and hypersensitivity to C4HSL on RhlR-dependent transcription activation in P. aeruginosa, we performed RNA-seq on ΔrhlI strains expressing WT RhlR, RhlR T58L, and RhlR A44M in the presence of 2 µM C4HSL. We chose this approach to better control the levels of C4HSL across samples. All gene expression analyses were done relative to a ΔrhlI strain without exogenous supplementation of AHL. Thus, we examined the total increase in C4HSL-dependent gene regulation. We observed increased rhlA RNA levels in strains expressing WT RhlR and the RhlR T58L variant compared to ΔrhlI without C4HSL or a strain expressing the RhlR A44M variant (Table 2; Table S1). […] To corroborate our RNA-seq data, we built an rhlA promoter fusion to mScarlet and assayed reporter levels in the same genetic backgrounds as our transcriptomic experiment (Fig. S7D). Strains expressing hypersensitive RhlR variants produced similar levels of fluorescent signal relative to the WT strain, while a strain expressing a hyposensitive RhlR variant had diminished levels of fluorescent reporter (Fig. S7D).
A total of […] of overnight cultures was back diluted 1:100 in 20 mL of fresh LB media and incubated for 5 h at 37°C with shaking. Cells were harvested by centrifugation, and pellets were frozen until RNA extraction. RNA was extracted using the Invitrogen PureLink RNA Mini Kit. Pellets were resuspended in 100 µL lysozyme solution containing 10 mM Tris-HCl pH 8.0, 0.1 mM EDTA, and 1 mg/mL lysozyme. Five microliters of 1% SDS was added, and the solution was mixed with a vortex and incubated at room temperature for 5 min. A total of 350 µL lysis buffer (Invitrogen) was added with 10 µL 2-mercaptoethanol for each 1 mL of lysis buffer and vortexed. Cells were lysed by bead beating (BioSpec 0.1 MM Zirconia/Silica Beads) for two rounds of 50 s. Lysed cells were transferred to fresh microcentrifuge tubes with 250 µL of 100% ethanol and mixed with a vortex. Samples were spun in spin cartridges (Invitrogen) at 12,000 × g for 15 s at room temperature, and the flow-through was discarded. A total of 700 µL Wash Buffer I (Invitrogen) was added and spun at 12,000 × g for 15 s at room temperature, and the flow-through was discarded. A total of 500 µL Wash Buffer II (Invitrogen) with ethanol was added and centrifuged for 12,000 × g for 15 s at room temperature; the flow-through was discarded, and RNA samples were washed again. Cells were spun at 12,000 × g for 1 min at room temperature to dry the membrane with the bound RNA. A total of 50 µL RNAse-free water was added to the center of the spin cartridge, incubated at room temperature for 1 min, and centrifuged for 2 min at ≥12,000 × g at room temperature. Extracted RNA was then frozen at −80°C until further use.
Bulk RNA was sent to SeqCenter (Pittsburgh, PA) where it was processed for paired-end Illumina sequencing via rRNA depletion using Ribo-Zero Plus (Illumina). Fastq files generated by SeqCenter were processed using Rockhopper with default settings ([61][–][63]). Briefly, fastq files were aligned to the genome of Pseudomonas aeruginosa UCBPP-PA14. The reads were subsequently normalized using upper-quartile normalization, and transcript abundance was determined by reads per kilobase per million mapped reads. Differential gene expression analysis was conducted using a negative binomial distribution model, outputting a P-value for each transcript. The P-values were then corrected for false discovery using the Benjamini-Hochberg procedure, resulting in the q-values reported here (Table S2). SignalMap v2.0 (NimbleGen Systems) was used to visualize read counts for phzABCDEFG1/2, phzH, phzM, and phzS (Fig. 5). Aligned sequences generated in Rockhopper were converted to GFF files, and genes of interest were isolated into unique GFF files ([37]).

Q: What does the source list for `CCCC(=O)N[C@H]1CCOC1=O` [C4HSL, N-butyryl-L-homoserine lactone]?
A: chiC Expression value: 3,615,357; fhp Expression value: 396,561.5; hcnA Expression value: 9,523; katA Expression value: 12,151,161; katB Expression value: 2,895,168; lasB Expression value: 19,328,123.5; lecB Expression value: 250,651; mexG Expression value: 332,571.5; mexH Expression value: 723,774.5; mexI Expression value: 830,527.5; mvfR Expression value: 267,969; norB Expression value: 7,897,306; norC Expression value: 3,026,578.5; opmD Expression value: 525,347; phnA Expression value: 1,406,882.5; phnB Expression value: 434,424; phzA1 Expression value: 6,068; phzA2 Expression value: 61,057.5; phzB1 Expression value: 73,793; phzB2 Expression value: 1,991,168; phzC1 Expression value: 272,395.5; phzC2 Expression value: 1,969,682.5; phzD1 Expression value: 1,058,250; phzD2 Expression value: 977,075.5; phzE1 Expression value: 2,058,712.5; phzE2 Expression value: 1,532,300.5; phzF1 Expression value: 1,047,752.5; phzF2 Expression value: 1,048,278.5; phzG1 Expression value: 312,421.5; phzG2 Expression value: 1,165,545; phzM Expression value: 79,302.5; phzS Expression value: 377,065.5; pqsA Expression value: 870,485.5; pqsB Expression value: 2,171,803.5; pqsC Expression value: 2,097,049; pqsD Expression value: 2,742,260; pqsE Expression value: 1,483,216.5; rhlA Expression value: 879,447.5; rhlB Expression value: 741,717; rhlR Expression value: 906,213; chiC Log2fold change (vs ΔrhlI without AHL): 4.706; fhp Log2fold change (vs ΔrhlI without AHL): 5.681; hcnA Log2fold change (vs ΔrhlI without AHL): −1.753; katA Log2fold change (vs ΔrhlI without AHL): 1.97; katB Log2fold change (vs ΔrhlI without AHL): 7.877; lasB Log2fold change (vs ΔrhlI without AHL): 2.595; lecB Log2fold change (vs ΔrhlI without AHL): −0.51; mexG Log2fold change (vs ΔrhlI without AHL): 6.357; mexH Log2fold change (vs ΔrhlI without AHL): 6.234; mexI Log2fold change (vs ΔrhlI without AHL): 5.568; mvfR Log2fold change (vs ΔrhlI without AHL): 0.187; norB Log2fold change (vs ΔrhlI without AHL): 7.599; norC Log2fold change (vs ΔrhlI without AHL): 7.238; opmD Log2fold change (vs ΔrhlI without AHL): 6.207; phnA Log2fold change (vs ΔrhlI without AHL): −0.7187; phnB Log2fold change (vs ΔrhlI without AHL): −0.4007; phzA1 Log2fold change (vs ΔrhlI without AHL): −2.305; phzA2 Log2fold change (vs ΔrhlI without AHL): 2.537; phzB1 Log2fold change (vs ΔrhlI without AHL): −2.194; phzB2 Log2fold change (vs ΔrhlI without AHL): 3.237; phzC1 Log2fold change (vs ΔrhlI without AHL): 0.3098; phzC2 Log2fold change (vs ΔrhlI without AHL): 3.428; phzD1 Log2fold change (vs ΔrhlI without AHL): 2.278; phzD2 Log2fold change (vs ΔrhlI without AHL): 2.374; phzE1 Log2fold change (vs ΔrhlI without AHL): 2.344; phzE2 Log2fold change (vs ΔrhlI without AHL): 2.345; phzF1 Log2fold change (vs ΔrhlI without AHL): 2.194; phzF2 Log2fold change (vs ΔrhlI without AHL): 2.188; phzG1 Log2fold change (vs ΔrhlI without AHL): 0.6164; phzG2 Log2fold change (vs ΔrhlI without AHL): 3.389; phzM Log2fold change (vs ΔrhlI without AHL): −2.128; phzS Log2fold change (vs ΔrhlI without AHL): −0.989; pqsA Log2fold change (vs ΔrhlI without AHL): −1.603; pqsB Log2fold change (vs ΔrhlI without AHL): −0.7949; pqsC Log2fold change (vs ΔrhlI without AHL): −0.8699; pqsD Log2fold change (vs ΔrhlI without AHL): −0.6876; pqsE Log2fold change (vs ΔrhlI without AHL): −0.7631; rhlA Log2fold change (vs ΔrhlI without AHL): 1.8; rhlB Log2fold change (vs ΔrhlI without AHL): 2.488; rhlR Log2fold change (vs ΔrhlI without AHL): 0.5062
